We go through one compound from patent US20070021355A1, “Antidepressants or foods and beverage for antidepression” (priority 2003, published 2007).

What all share (format): in vivo
In assay [1] the test system is mice fed with a vitamin B deficient food. Put plainly: Action on depressive behavior induced by vitamin B deficient food (swimming patterns). Here is the method: Male ddY mice (3 weeks old) were fed with a feed deficient in vitamin B1, vitamin B12 and folic acid for 8 days and then divided into two groups: one to which Compound 1 (100 mg/kg) was intraperitoneally administered once per day for 11 days (vitamin deficient food+Compound 1-administered group) and the other to which only a solvent was administered (vitamin deficient food+solvent-administered group). Compound 1 was administered after being dissolved in a physiological saline. Two hours after the last administration, the mice were put in a plastic cylindrical tub (diameter: 18 cm, height: 40 cm, water depth: 15 cm, water temperature: ca. 23° C.), followed by measurement of the time of their struggle, swimming and immobility in 10 minutes. Separately, another group of mice fed with a normal food was tested.

Assay [2] has as its system reserpine-administered mice. The assay is described as follows: Action on reserpine-induced temperature drop (body temperature). Conditions: for Body temperature: male ddY mice, reserpine 2 mg/kg s.c., 100 mg/kg i.p. once per day for two days, mean ± standard error. As to the method:
(§1) Male ddY mice (4 weeks old) were subcutaneously administered reserpine (2 mg/kg) (Apoplon injection 1 mg, product of Daiichi Pharmaceutical Co., Ltd.). These mice were divided into two groups: one to which Compound 1 (100 mg/kg) was intraperitoneally administered once per day for two days (reserpine+Compound 1-administered group) and the other to which only a solvent was administered (reserpine+solvent-administered group). Reserpine and Compound 1 were administered after being dissolved in a physiological saline. The body temperature of the mice was measured 0.5, 1, 3 and 6 hours after the last administration. Separately, a solvent was administered to another group of mice without reserpine administration.

In assay [3] the test system is reserpine-administered mice. The assay is described as follows: Action on reserpine-induced blepharoptosis. As to conditions: for Blepharoptosis score: score 1 completely opened to 5 completely closed, reserpine 2 mg/kg s.c., 100 mg/kg i.p. once per day for two days, mean ± standard error. As to the method:
as §1, with “The level” for “The body temperature”, “of blepharoptosis” for “of the mice”, “was scored” for “was measured”, “last administration (score 1: completely opened, score 2: ¼ closed, score 3: ½ closed, score 4: ¾ closed, and score 5: completely closed).” for “last administration.”

In assay [4] the test system is reserpine-administered mice. The assay is described as follows: Action on reserpine-induced drop in the quantity of spontaneous motion. Here is the method: Male ddY mice (4 weeks old) were subcutaneously administered reserpine (2 mg/kg) (Apoplon injection 1 mg, product of Daiichi Pharmaceutical Co., Ltd.). These mice were divided into two groups: one to which Compound 1 (100 mg/kg) was intraperitoneally administered once per day for four days (reserpine+Compound 1-administered group) and the other to which only a solvent was administered (reserpine+solvent-administered group). Reserpine and Compound 1 were administered after being dissolved in a physiological saline. After the last administration, the mice were immediately put into breeding cages equipped with an infrared beam sensor (NS-AS01, Neuroscience, Inc.). After the last administration, the quantity of spontaneous motion in each 30-minute period was measured for 360 minutes with an infrared beam sensor device for measuring the quantity of spontaneous motion (AB system, Neuroscience, Inc.) and the measured values were summed up on a specific purpose computer via an interface (B060CT8H06, Neuroscience, Inc). Separately, another group of mice which was administered no reserpine was tested.

Assay [5] has as its system 5-HT and 5-HIAA in the hypothalamus of mice. Put plainly: Action on the amount of amine in the brain (5-HT and 5-HIAA in the hypothalamus). Conditions: 100 mg/kg i.p. As to the method:
Male ddY mice (4 weeks old) were intraperitoneally administered Compound 1 (100 mg/kg) (Compound 1-administered group) and their brains were excised 30 and 60 minutes after the administration to measure the amounts of serotonin (5-HT) and its metabolite 5-hydroxyindole-3-acetic acid (5-HIAA) in the hypothalamus. Compound 1 was administered after being dissolved in a physiological saline. Separately, another group of mice was administered only a solvent (solvent-administered group) and the amounts of 5-HT and 5-HIAA were measured in the same manner.

The mark [6] stands for this setting: vitamin B deficient food, 100 mg/kg i.p. once per day for 11 days, two hours after last administration, time in 10 minutes, mean ± standard error.
Where [7] appears, read: 30 minute after last administration.
The mark [8] stands for this setting: 60 minute after last administration.
Where [9] appears, read: 180 minute after last administration.
[10] abbreviates: 360 minute after last administration.
[11] abbreviates: male ddY mice, brains excised 30 and 60 minutes after administration, mean ± standard error.

On to `NC(Cc1c([C@@H]2O[C@@H](CO)[C@H](O)[C@@H](O)[C@H]2O)[nH]c2ccccc12)C(=O)O` (stereo partly drawn) [Compound 1, 2-amino-3-[2-(α-L-mannopyranosyl]indol-3-yl]propionic acid], for which the “Effect on struggle, swimming and immobility time of mice on vitamin B deficient food (in words)” value in assay [1] (100 mg/kg i.p.) is “improved these actions”. The “Swimming pattern: Immobility” value in assay [1] (setting [6]) is recorded as “***35.6 ± 15.4 second”. For the same compound, the “Swimming pattern: Struggle” value in assay [1] (setting [6]) is recorded as “***2.4 ± 2.4 second”. In addition, in assay [1] (setting [6]), the “Swimming pattern: Swimming” value is recorded as “***562.0 ± 14.2 second”. For the same compound, in assay [2] (100 mg/kg i.p.), the “Effect on body temperature of reserpine-administered mice (in words)” value is “significantly raised the body temperature”. The Body temperature result in assay [2] (setting [7]) is “***36.1 ± 0.2 °C”; in assay [2] (setting [8]), “** 35.4 ± 0.1 °C”; in assay [2] (setting [9]), “** 35.2 ± 0.3 °C”; in assay [2] (setting [10]) it was “** 34.9 ± 0.4 °C”. In assay [3] (100 mg/kg i.p.), the “Effect on reserpine-induced blepharoptosis (in words)” value is listed as “showed the action to improve the condition”. Further, the Blepharoptosis score entry is recorded as “***3.0 ± 0.4” in assay [3] (setting [7]), “** 3.1 ± 0.3” in assay [3] (setting [8]), “** 3.3 ± 0.3” in assay [3] (setting [9]) and “** 3.3 ± 0.2” in assay [3] (setting [10]). In assay [4] (100 mg/kg i.p.), the “Effect on reserpine-induced drop in quantity of spontaneous motion (in words)” value was “showed the action to increase the quantity of spontaneous motion”. In addition, the “Quantity of spontaneous motion in 360 minutes” value in assay [4] (reserpine 2 mg/kg s.c., 100 mg/kg i.p. once per day for four days, infrared beam sensor, mean ± standard error) was 2464.2 ± 594.6 count. Moreover, in assay [5], the “Effect on contents of 5-HT and 5-HIAA in the hypothalamus (in words)” value was “increased the contents of 5-HT and 5-HIAA”. In addition, the “Content of 5-HIAA in the hypothalamus” value in assay [5] (setting [11]) was 374.1 ± 26.7 ng/g wet weight. Besides, the “Content of 5-HT in the hypothalamus” value in assay [5] (setting [11]) turned out to be 815.0 ± 39.1 ng/g wet weight.
